Assay results from patent publication US9695193B2, “Inhibitors of Plasmodium falciparum equilibrative nucleoside transporter type I as anti-parasitic compounds” (The Trustees of Columbia University in the City of New York, priority 2013, dated 2017).

Molecular target: T1, PfENT1 (Plasmodium falciparum, UniProt Q8IDM6)
T1 construct: expressed in transfected cells; host or cells: fui1Δ yeast (Saccharomyces cerevisiae), co-expressing GFP
Format: cell-based
Conditions: primary HTS, compounds at 10 μM, 125 μM 5-FUrd
In short: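 fui1Δ yeast expressing PfENT1 and GFP were grown with 125 μM 5-fluorouridine, so growth reflects blocked 5-FUrd uptake. Compounds were screened at 10 μM. Growth scored by OD620 turbidity and GFP fluorescence, and hits had to be positive on both.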

T1 sequence (Q8IDM6 whole entry): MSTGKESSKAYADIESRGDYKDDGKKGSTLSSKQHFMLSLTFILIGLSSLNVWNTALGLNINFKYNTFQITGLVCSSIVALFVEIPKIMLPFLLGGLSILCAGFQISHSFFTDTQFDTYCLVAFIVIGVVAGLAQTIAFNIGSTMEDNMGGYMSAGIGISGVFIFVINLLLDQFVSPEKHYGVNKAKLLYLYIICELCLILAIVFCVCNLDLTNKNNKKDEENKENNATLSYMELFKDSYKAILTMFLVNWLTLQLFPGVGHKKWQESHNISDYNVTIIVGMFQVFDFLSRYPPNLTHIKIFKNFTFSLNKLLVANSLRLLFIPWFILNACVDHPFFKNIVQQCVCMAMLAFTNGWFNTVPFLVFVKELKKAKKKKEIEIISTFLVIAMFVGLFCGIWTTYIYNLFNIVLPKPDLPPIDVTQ

## COc1ccc(NC(=O)C2CCN(C(=O)c3ccc(F)cc3)CC2)c(OC)c1 [compound 154, N-(2,4-dimethoxyphenyl)-1-(4-fluorobenzoyl)-4-piperidinecarboxamide]
  Avg Normalized % maximal activity: 2.30%

## COc1cccc(C(=O)Nc2ccc(-c3nc4ncccc4o3)cc2C)c1 [compound 89, 3-methoxy-N-(2-methyl-4-[1,3]oxazolo [4,5-b]pyridin-2-ylphenyl)benzamide]
  Avg Normalized % maximal activity: 5.35%

## O=C(C1CCCCC1)N1CCN(c2ccccn2)CC1 [compound 130, 1-(cyclohexylcarbonyl)-4-(2-pyridinyl)piperazine]
  Avg Normalized % maximal activity: 3.69%

## O=C(Nc1ccc(-c2nnc(-c3ccccc3)o2)cc1)c1ccco1 [compound 30, N-[4-(5-phenyl-1,3,4-oxadiazol-2-yl)phenyl]-2-furamide]
  Avg Normalized % maximal activity: 13.43%

## C[N+]1(C)C2CC(OC(=O)[C@H](CO)c3ccccc3)CC1C1OC12 (stereo partly shown) [compound 135]
  Avg Normalized % maximal activity: 3.47%

## CCc1cccc(C)c1NS(=O)(=O)c1cccs1 [compound 36, N-(2-ethyl-6-methylphenyl)-2-thiophenesulfonamide]
  Avg Normalized % maximal activity: 11.14%

## Cn1c(=O)oc2cc(S(=O)(=O)Nc3ccccc3Br)ccc21 [compound 150, N-(2-bromophenyl)-3-methyl-2-oxo-2,3-dihydro-1,3-benzoxazole-6-sulfonamide]
  Avg Normalized % maximal activity: 2.62%

## CC1(C)CC(=O)c2sc(NC(=O)c3ccccc3F)nc2C1 [compound 61, N-(5,5-dimethyl-7-oxo-4,5,6,7-tetrahydro-1,3-benzothiazol-2-yl)-2-fluorobenzamide]
  Avg Normalized % maximal activity: 7.27%

## O=c1c2c3nc4ccccc4nc3n(Cc3ccco3)c2ncn1Cc1ccco1 [compound 166]
  Avg Normalized % maximal activity: 1.98%

## O=C(Nc1ccc2oc(-c3cccnc3)nc2c1)c1ccc(Br)o1 [compound 85, 5-bromo-N-[2-(3-pyridinyl)-1,3-benzoxazol-5-yl]-2-furamide]
  Avg Normalized % maximal activity: 5.64%

## O=C(c1cc2nc3c(c(C(F)(F)F)n2n1)CCc1ccccc1-3)N1CCCC1 [compound 170, 10-(1-pyrrolidinyl-carbonyl)-7-(trifluoromethyl)-5,6-dihydrobenzo[h] pyrazolo[5,1-b] quinazoline]
  Avg Normalized % maximal activity: 1.74%

## CC(C)(C)c1nnc(NC(=O)c2cccc(Cl)c2)s1 [compound 68]
  Avg Normalized % maximal activity: 6.79%

## COc1ccc(C(=O)Nc2cccc(-c3nc4ncccc4o3)c2)cc1 [compound 16, 4-methoxy-N-(3-[1,3]oxazolo [4,5-b]pyridin-2-ylphenyl)benzamide]
  Avg Normalized % maximal activity: 23.87%

## O=C(Nc1ccc(-c2nnc(-c3ccco3)o2)cc1)C1CCCCC1 [compound 110, N-{4-[5-(2-furyl)-1,3,4-oxadiazol-2-yl]phenyl} cyclohexane-carboxamide]
  Avg Normalized % maximal activity: 4.61%

## COc1ccc(OC)c(Nc2nc(=O)c3cccnc3s2)c1 [compound 63, 2-[(2,5-dimethoxyphenyl)amino]-4H-pyrido[3,2-e][1,3] thiazin-4-one]
  Avg Normalized % maximal activity: 7.19%

## Cc1ccnc(NC(=O)c2cccc(NC(=O)c3ccco3)c2)c1 [compound 65, N-(3-{[(4-methyl-2-pyridinyl)amino]carbonyl}phenyl)-2-furamide]
  Avg Normalized % maximal activity: 7.09%

## COC(=O)c1ccccc1NC(=O)c1cccc(NC(=O)c2ccco2)c1C [compound 33, methyl 2-{[3-(2-furoylamino)-2-methylbenzoyl]amino}benzoate]
  Avg Normalized % maximal activity: 11.98%

## COc1cc2c(cc1OC)-c1cc3ccc(OC)c(OC)c3c[n+]1CC2 [compound 72]
  Avg Normalized % maximal activity: 6.56%

## COc1cccc(C(=O)Nc2ccc(-c3nnc(-c4ccco4)o3)cc2)c1 [compound 35, N-{4-[5-(2-furyl)-1,3,4-oxadiazol-2-yl]phenyl}-3-methoxybenzamide]
  Avg Normalized % maximal activity: 11.40%

## Cc1cc(=O)oc2cc(OCc3nnc(-c4ccccc4)o3)ccc12 [compound 12, 4-methyl-7-[(5-phenyl-1,3,4-oxadiazol-2-yl)methoxy]-2H-chromen-2-one]
  Avg Normalized % maximal activity: 31.72%

## O=C(CCCN1C(=O)c2cccc3cccc(c23)C1=O)N1CCCCC1 [compound 71, 2-[4-oxo-4-(1-piperidinyl)butyl]-1H-benzo[de]isoquinoline-1,3(2H)-dione]
  Avg Normalized % maximal activity: 6.67%

## CCN(CC)C(=O)c1ccc(-c2ccc(N3CCOCC3)c3ccccc23)nn1 [compound 57]
  Avg Normalized % maximal activity: 7.64%

## CC(C(=O)O)c1ccc(-c2ccccc2)c(F)c1 (stereo not shown) [compound 77]
  Avg Normalized % maximal activity: 6.18%

## O=C(Nc1nc2c(s1)C(=O)CCC2)c1ccccc1Cl [compound 24, 2-chloro-N-(7-oxo-4,5,6,7-tetrahydro-1,3-benzothiazol-2-yl)benzamide]
  Avg Normalized % maximal activity: 16.16%

## Cc1ccccc1C(=O)Nc1ccc2c(C)cc(=O)oc2c1 [compound 28]
  Avg Normalized % maximal activity: 13.98%

## COc1ccc(/C=C/c2nc(C#N)c(N3CCCCC3)o2)cc1OC [compound 128, 2-[2-(3,4-dimethoxyphenyl)vinyl]-5-(1-piperidinyl)-1,3-oxazole-4-carbonitrile]
  Avg Normalized % maximal activity: 3.74%

## O=c1[nH]c(/C=C/c2ccccc2Cl)nc2ccccc12 [compound 18, 2-[2-(2-chlorophenyl)vinyl]-4(3H)-quinazolinone]
  Avg Normalized % maximal activity: 21.82%

## COc1cc(NC(=O)CSc2nccc(C)n2)c(OC)cc1Cl [compound 117, N-(4-chloro-2,5-dimethoxyphenyl)-2-[(4-methyl-2-pyrimidinyl)thio]acetamide]
  Avg Normalized % maximal activity: 4.28%

## Cc1ccc(NC(=O)CSc2nccn2C)cc1C [compound 115, N-(3,4-dimethylphenyl)-2-[(1-methyl-1H-imidazol-2-yl)thio]acetamide]
  Avg Normalized % maximal activity: 4.36%

## Cc1ccc2n1CCN(C(=O)c1ccc(S(=O)(=O)N(C)C)cc1)C2C (stereo not shown) [compound 136]
  Avg Normalized % maximal activity: 3.43%

## CNC(=O)c1nc(-c2ccc(Cl)cc2)no1 [compound 97, 3-(4-chlorophenyl)-N-methyl-1,2,4-oxadiazole-5-carboxamide]
  Avg Normalized % maximal activity: 4.86%

## Fc1ccc(C2CC(c3ccco3)n3ncnc3N2)cc1 (stereo not shown) [compound 23, 5-(4-fluorophenyl)-7-(2-furyl)-4,5,6,7-tetrahydro[1,2,4] triazolo[1,5-a]pyrimidine]
  Avg Normalized % maximal activity: 16.77%

## CCCCC(=O)Nc1ccc(NC(=O)c2cccs2)cc1OC [compound 156, N-[3-methoxy-4-(pentanoylamino)phenyl]-2-thiophenecarboxamide]
  Avg Normalized % maximal activity: 2.17%

## O=C(Nc1cccc(-c2nc3ncccc3o2)c1)c1ccccc1F [compound 96, 2-fluoro-N-(3-[1,3]oxazolo [4,5-b]pyridin-2-ylphenyl)benzamide]
  Avg Normalized % maximal activity: 4.92%

## COc1ccc(NC(=O)C(C)Oc2ccc3oc(=O)cc(C)c3c2)cc1 (stereo not shown) [compound 88, N-(4-methoxyphenyl)-2-[(4-methyl-2-oxo-2H-chromen-6-yl)oxy]propanamide]
  Avg Normalized % maximal activity: 5.42%

## CC(C)c1nnc(NC(=O)c2cccc(I)c2)s1 [compound 123, 3-iodo-N-(5-isopropyl-1,3,4-thiadiazol-2-yl)benzamide]
  Avg Normalized % maximal activity: 4.10%

## NCCc1cc(O)c(O)cc1O [compound 84]
  Avg Normalized % maximal activity: 5.72%

## COc1ccc(OC)c(NC(=O)COc2ccc3ccccc3c2)c1 [compound 163, N-(2,5-dimethoxyphenyl)-2-(2-naphthyloxy)acetamide]
  Avg Normalized % maximal activity: 2.04%

## COc1ccc(-c2cnc3ccccc3n2)cc1NC(=O)c1cccs1 [compound 92, N-(2-methoxy-5-(2-quinoxalinyl)phenyl]-2-thiophenecarboxamide]
  Avg Normalized % maximal activity: 5.16%

## Cc1cc2nc(Nc3nc(=O)c(C)c(C)[nH]3)nc(C)c2cc1C [compound 144, 5,6-dimethyl-2-[(4,6,7-trimethyl-2-quinazolinyl)amino]-4(1H)-pyrimidinone]
  Avg Normalized % maximal activity: 3.04%

## COc1ccc(N(CC(=O)Nc2ccc(Cl)cc2)S(C)(=O)=O)c(OC)c1 [compound 107, N~1~-(4-chlorophenyl)-N~2~-(2,4-dimethoxyphenyl)-N~2~-(methylsulfonyl)glycinamide]
  Avg Normalized % maximal activity: 4.67%

## COc1ccc(Cl)cc1Nc1nnc(-c2cnccn2)s1 [compound 32, N-(5-chloro-2-methoxyphenyl)-5-(2-pyrazinyl)-1,3,4-thiadiazol-2-amine]
  Avg Normalized % maximal activity: 12.03%

## Cc1c(/C=C/c2nc3ccccc3c(=O)[nH]2)c2ccccc2n1C [compound 34, 2-[2-(1,2-dimethyl-1H-indol-3-yl)vinyl]-4(3H)-quinazolinone]
  Avg Normalized % maximal activity: 11.27%

## Cc1cc(=O)oc2cc(OCc3ccc4c(c3)OCO4)ccc12 [compound 134, 7-(1,3-benzodioxol-5-ylmethoxy)-4-methyl-2H-chromen-2-one]
  Avg Normalized % maximal activity: 3.56%

## COc1ccc(C(=O)Nc2ccc(-c3nc4ncccc4o3)cc2C)cc1OC [compound 37, 3,4-dimethoxy-N-(2-methyl-4-[1,3]oxazolo [4,5-b]pyridin-2-ylphenyl)benzamide]
  Avg Normalized % maximal activity: 10.61%

## O=C(Nc1ccc(-c2nnc(-c3ccccc3)o2)cc1)c1ccccc1Cl [compound 132]
  Avg Normalized % maximal activity: 3.60%

## CCOc1ccc(-c2noc(CCCC(=O)N3CCCCC3)n2)cc1OC [compound 25, 1-{4-[3-(4-ethoxy-3-methoxyphenyl)-1,2,4-oxadiazol-5-yl]butanoyl} piperidine]
  Avg Normalized % maximal activity: 15.69%

## Cn1nc(-c2ccc(C(=O)N3CCCCC3)cc2)c2ccccc2c1=O [compound 59, 2-methyl-4-[4-(1-piperidinylcarbonyl)phenyl]-1(2H)-phthalazinone]
  Avg Normalized % maximal activity: 7.59%

## O=C(Nc1ccc(-c2nnc(-c3ccccc3)o2)cc1)C1CCCO1 (stereo not shown) [compound 42, N-[4-(5-phenyl-1,3,4-oxadiazol-2-yl)phenyl]tetrahydro-2-furancarboxamide]
  Avg Normalized % maximal activity: 10.16%
